Tests used:
Format in all cases: functional
NCI/ADR-RES [1] = test: Growth inhibition of Homo sapiens (human) NCI/ADR-RES cells at 10 uM after 48 hr by SRB assay; details: read-out: GI
MOLT-4 = test: Anticancer activity against Homo sapiens (human) MOLT4 cells after 48 hr by SRB assay; details: MOLT-4, 48 h; for CC50: read-out: LC50 (the source's name)
UACC-257 = test: Growth inhibition of Homo sapiens (human) UACC257 cells at 10 uM after 48 hr by SRB assay; details: UACC-257, 48 h, read-out: GI
NCI-H522 = test: Growth inhibition of Homo sapiens (human) NCI-H522 cells at 10 uM after 48 hr by SRB assay; details: NCI-H522, 48 h, read-out: GI
NCI-H226 [2] = test: Anticancer activity against Homo sapiens (human) NCI-H226 cells after 48 hr by SRB assay; details: NCI-H226, 48 h; for CC50: read-out: LC50 (the source's name)
EKVX = test: Growth inhibition of Homo sapiens (human) EKVX cells at 10 uM after 48 hr by SRB assay; details: read-out: GI
DU-145 = test: Growth inhibition of Homo sapiens (human) DU145 cells at 10 uM after 48 hr by SRB assay; details: DU-145, 48 h, read-out: GI
SK-MEL-5 = test: Growth inhibition of Homo sapiens (human) SK-MEL-5 cells at 10 uM after 48 hr by SRB assay; details: SK-MEL-5, 48 h, read-out: GI
COLO 205 = test: Growth inhibition of Homo sapiens (human) COLO205 cells at 10 uM after 48 hr by SRB assay; details: COLO 205, 48 h, read-out: GI
SK-MEL-28 = test: Growth inhibition of Homo sapiens (human) SK-MEL-28 cells at 10 uM after 48 hr by SRB assay; details: SK-MEL-28, 48 h, read-out: GI
A498 = test: Growth inhibition of Homo sapiens (human) A498 cells at 10 uM after 48 hr by SRB assay; details: A498, 48 h, read-out: GI
SK-MEL-2 = test: Growth inhibition of Homo sapiens (human) SK-MEL-2 cells at 10 uM after 48 hr by SRB assay; details: SK-MEL-2, 48 h, read-out: GI
SF-268 = test: Growth inhibition of Homo sapiens (human) SF268 cells at 10 uM after 48 hr by SRB assay; details: SF-268, 48 h, read-out: GI
SF-539 = test: Growth inhibition of Homo sapiens (human) SF539 cells at 10 uM after 48 hr by SRB assay; details: SF-539, 48 h, read-out: GI
NCI-H322M = test: Growth inhibition of Homo sapiens (human) NCI-H322M cells at 10 uM after 48 hr by SRB assay; details: read-out: GI
NCI/ADR-RES [3] = test: Anticancer activity against Homo sapiens (human) NCI/ADR-RES cells after 48 hr by SRB assay
SNB-75 = test: Growth inhibition of Homo sapiens (human) SNB75 cells at 10 uM after 48 hr by SRB assay; details: SNB-75, 48 h, read-out: GI
RPMI-8226 = test: Growth inhibition of Homo sapiens (human) RPMI8226 cells at 10 uM after 48 hr by SRB assay; details: RPMI-8226, 48 h, read-out: GI
CAKI-1 = test: Growth inhibition of Homo sapiens (human) CAKI-1 cells at 10 uM after 48 hr by SRB assay; details: CAKI-1, 48 h, read-out: GI
OVCAR-4 = test: Growth inhibition of Homo sapiens (human) OVCAR4 cells at 10 uM after 48 hr by SRB assay; details: OVCAR-4, 48 h, read-out: GI
OVCAR-5 = test: Growth inhibition of Homo sapiens (human) OVCAR5 cells at 10 uM after 48 hr by SRB assay; details: OVCAR-5, 48 h, read-out: GI
MDA-MB-231 = test: Growth inhibition of Homo sapiens (human) MDA-MB-231/ATCC cells at 10 uM after 48 hr by SRB assay; details: MDA-MB-231, 48 h, read-out: GI
SR = test: Growth inhibition of Homo sapiens (human) SR cells at 10 uM after 48 hr by SRB assay; details: read-out: GI
NCI-H226 [4] = test: Growth inhibition of Homo sapiens (human) NCI-H226 cells at 10 uM after 48 hr by SRB assay; details: NCI-H226, 48 h, read-out: GI

## COc1ccc(OC)c(/C=C/C(=O)N/N=C/c2ccc(Cl)cc2)c1
NCI/ADR-RES [1]
  inhibition of growth at 10 µM: 96.2%
MOLT-4
  GI50: 0.523 µM
  TGI: > 100 µM
  CC50: > 100 µM
UACC-257
  inhibition of growth at 10 µM: 47%
NCI-H522
  inhibition of growth at 10 µM: 136%
NCI-H226 [2]
  GI50: 0.979 µM
  TGI: > 100 µM
  CC50: > 100 µM
EKVX
  inhibition of growth at 10 µM: 56.9%
DU-145
  inhibition of growth at 10 µM: 85.2%
SK-MEL-5
  inhibition of growth at 10 µM: 69.4%
COLO 205
  inhibition of growth at 10 µM: 149%
SK-MEL-28
  inhibition of growth at 10 µM: 61.2%
A498
  inhibition of growth at 10 µM: 87.5%
SK-MEL-2
  inhibition of growth at 10 µM: 77.7%
SF-268
  inhibition of growth at 10 µM: 66.8%
SF-539
  inhibition of growth at 10 µM: 143%
NCI-H322M
  inhibition of growth at 10 µM: 58.7%
NCI/ADR-RES [3]
  GI50: 0.0391 µM
  LC50: 90.6 µM
  TGI: 0.233 µM
SNB-75
  inhibition of growth at 10 µM: 56%
RPMI-8226
  inhibition of growth at 10 µM: 78.7%
CAKI-1
  inhibition of growth at 10 µM: 58.2%
OVCAR-4
  inhibition of growth at 10 µM: 59.8%
OVCAR-5
  inhibition of growth at 10 µM: 71.6%
MDA-MB-231
  inhibition of growth at 10 µM: 71.9%

## COc1ccc(OC)c(/C=C/c2nnc(S)n2-c2ccc(Cl)cc2)c1
MOLT-4
  GI50: 7.74 µM
  TGI: > 100 µM
  CC50: > 100 µM
SR
  inhibition of growth at 10 µM: 61.7%
SF-539
  inhibition of growth at 10 µM: 60.5%
NCI/ADR-RES [3]
  GI50: 3.63 µM
  LC50: > 100 µM
  TGI: > 100 µM
SNB-75
  inhibition of growth at 10 µM: 57.5%

## COc1ccc(OC)c(/C=C/c2nnc(Nc3ccc(Cl)cc3)o2)c1
MOLT-4
  GI50: > 100 µM
  TGI: > 100 µM
  CC50: > 100 µM
NCI-H226 [4]
  inhibition of growth at 10 µM: 43.9%
NCI-H322M
  inhibition of growth at 10 µM: 41.4%
NCI/ADR-RES [3]
  GI50: 7.62 µM
  LC50: > 100 µM
  TGI: 98.1 µM
SNB-75
  inhibition of growth at 10 µM: 84.2%
OVCAR-4
  inhibition of growth at 10 µM: 116%

## COc1ccc(OC)c(/C=C/C(=O)N/N=C/c2ccccc2)c1
NCI/ADR-RES [1]
  inhibition of growth at 10 µM: 91.5%
MOLT-4
  GI50: 4.45 µM
  TGI: > 100 µM
  CC50: > 100 µM
UACC-257
  inhibition of growth at 10 µM: 48.7%
NCI-H522
  inhibition of growth at 10 µM: 115%
NCI-H226 [2]
  GI50: 30.8 µM
  TGI: > 100 µM
  CC50: > 100 µM
EKVX
  inhibition of growth at 10 µM: 36%
SK-MEL-5
  inhibition of growth at 10 µM: 69.2%
COLO 205
  inhibition of growth at 10 µM: 57.2%
SK-MEL-28
  inhibition of growth at 10 µM: 34.5%
A498
  inhibition of growth at 10 µM: 61.3%
SK-MEL-2
  inhibition of growth at 10 µM: 101%
SF-268
  inhibition of growth at 10 µM: 39.3%
SF-539
  inhibition of growth at 10 µM: 48.2%
NCI/ADR-RES [3]
  GI50: 1.46 µM
  LC50: > 100 µM
  TGI: 4.29 µM
SNB-75
  inhibition of growth at 10 µM: 58.9%
RPMI-8226
  inhibition of growth at 10 µM: 45.6%
CAKI-1
  inhibition of growth at 10 µM: 52.2%

— ChEMBL document CHEMBL3046389, “Synthesis and biological evaluation of novel hydroquinone dimethyl ethers as potential anticancer and antimicrobial agents” (2013)
